One assay concerns the target CDK2/Cyclin A (Homo sapiens, UniProt P24941). The experiment in a line: Inhibition of CDK2/Cyclin A Retinoblastoma Kinase Activity. The assay is classed as biochemical. To be noted: for Ki: apparent Ki, CDK2/proteolyzed cyclin A, Rb fragment substrate, 25 μM ATP. Summed up:
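Radiometric filter-binding readout of phosphate transfer to an Rb substrate fragment by purified CDK2/truncated cyclin A at 10 or 19 nM. Run at pH 7.4 with 25 μM ATP, 30 °C, 60–75 min, linear rates; background without enzyme subtracted, Ki from competitive-inhibition models.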

Assay [1] concerns the target human CDK4 and genetically truncated (1-264) cyclin D3 (Homo sapiens, UniProt P11802). The assay can be described thus: Inhibition of CDK4/Cyclin D Retinoblastoma Kinase Activity. Conditions: for Ki: apparent Ki, CDK4/truncated cyclin D3, Rb fragment substrate, 25 μM ATP. Type of assay: biochemical. Summed up:
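Apparent Ki values come from competitive or competitive tight-binding inhibition fits of background-corrected 32P/33P incorporation into His-tagged Rb fragment (386-928), captured on nitrocellulose. Reaction: 5 nM insect-cell-expressed human CDK4 with cyclin D3 (1-264), 25 μM ATP, pH 7.4 HEPES, 2% DMSO, 30° C., 20 min, extended to 60 min for tight-binding inhibitors.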

The next assay deals with HCT-116 cell line. The experiment in a line: Inhibition of cell growth, tetrazolium salt (MTT) assay. The assay is classed as cell-based. To be noted: for IC50: Homo sapiens, HCT-116, 120 h, MTT, three to five days, read-out: HCT-116 IC50; for HCT-116 % Inhibition at 0.25 μM: 0.25 μM compound. Summed up: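 McCoy's 5A cultures; 4 h pre-incubation; compound dilutions in 0.5% v/v DMSO; 3–5 d, 37° C, 5% CO2; MTT 0.2 mg/mL final, 4 h; formazan dissolved in DMSO, A540; vs 0.5% DMSO vehicle.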

Where [2] appears, read: 0.03 μM compound, Table 4, 0.03 µM.
Setting [3] is: 0.1 μM compound, HCT-116, Table 3.

Counter-ions that a name gives are not always drawn. Like-named read-outs stand apart in the source and are kept apart here.

Sequence of human CDK4 and genetically truncated (1-264) cyclin D3 (P11802 whole entry, the tested form may be a part): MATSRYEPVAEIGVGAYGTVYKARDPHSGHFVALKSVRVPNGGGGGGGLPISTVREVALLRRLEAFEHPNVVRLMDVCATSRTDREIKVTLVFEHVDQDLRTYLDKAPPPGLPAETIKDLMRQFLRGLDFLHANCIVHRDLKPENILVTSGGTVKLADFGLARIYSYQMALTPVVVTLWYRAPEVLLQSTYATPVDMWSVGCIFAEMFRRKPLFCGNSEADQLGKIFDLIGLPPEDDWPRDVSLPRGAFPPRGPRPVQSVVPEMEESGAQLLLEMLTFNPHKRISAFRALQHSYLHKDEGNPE
Sequence of human CDK4 and genetically truncated (1-264) cyclin D3 (P30281 1-264 partner): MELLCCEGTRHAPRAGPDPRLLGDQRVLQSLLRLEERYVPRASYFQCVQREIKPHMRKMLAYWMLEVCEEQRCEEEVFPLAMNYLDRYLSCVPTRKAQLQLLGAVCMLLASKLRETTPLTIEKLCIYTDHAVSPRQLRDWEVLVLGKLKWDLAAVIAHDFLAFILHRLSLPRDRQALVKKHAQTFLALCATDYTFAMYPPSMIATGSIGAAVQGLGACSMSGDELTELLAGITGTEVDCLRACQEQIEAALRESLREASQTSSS

For orientation: IC50 means the midpoint of a concentration-inhibition curve. Take `Nc1nc(NC2CCN(S(=O)(=O)CCNCCN3CCCC3)CC2)sc1C(=O)c1c(F)cccc1F` [Example K28, (4-Amino-2-{1-[2-(2-pyrrolidin-1-yl-ethylamino)-ethanesulfonyl]-piperidin-4-ylamino}-thiazol-5-yl)-(2,6-difluoro-phenyl)-methanone Trifluoroacetic Acid Salt.]: the values for the Ki (on CDK2/Cyclin A; in assay [1]) were 10 nM and 2.8 nM, respectively. In addition, the 50% inhibitory concentration (IC50) in the assay on HCT-116 cell line (first HCT-116 column (c4)) and in the assay on HCT-116 cell line (second HCT-116 column (c5)) was greater than 5000 nM in each case.
On to `Nc1nc(NC2CCN(C(=O)c3cccs3)CC2)sc1C(=O)c1c(F)cccc1F` [Example Q64], for which, on CDK2/Cyclin A (setting [2]), the “CDK2 % Inhibition at 0.03 μM” value was determined as 45%. In assay [1] (setting [2]), the “CDK4 % Inhibition at 0.03 μM” value is reported as 48%. Further, the “HCT-116 % Inhibition at 0.1 μM” value with HCT-116 cell line (0.1 μM compound, HCT-116, Table 4, 0.1 µM) was determined as 7%. Further, the “HCT-116 % Inhibition at 0.25 μM” value in the assay on HCT-116 cell line (HCT-116, Table 4, 0.25 µM) amounted to 25%.
Consider `CS(=O)(=O)N1CCCC(Nc2nc(N)c(C(=O)c3c(F)cccc3F)s2)C1` (stereo not drawn) [Example F37, [4-Amino-2-(1-methanesulfonyl-piperidin-3-ylamino)-thiazol-5-yl]-(2,6-difluoro-phenyl)-methanone], for which the Ki worked out at 430 nM at CDK2/Cyclin A and 1100 nM in assay [1]. Further, the IC50 turned out to be 700 nM with HCT-116 cell line (first HCT-116 column (c4)) and 1500 nM in the assay on HCT-116 cell line (second HCT-116 column (c5)).
For `COc1ccc(C=CC(=O)N2CCC(Nc3nc(N)c(C(=O)c4c(F)cccc4F)s3)CC2)c(Cl)c1OC` [Example R61], the “CDK2 % Inhibition at 0.03 μM” value at CDK2/Cyclin A (at 0.03 μM) is on record as 63%. The “CDK4 % Inhibition at 0.03 μM” value in assay [1] (at 0.03 μM) is given as 59%. The “HCT-116 % Inhibition at 0.1 μM” value with HCT-116 cell line (HCT-116 cells, at 0.1 μM) stood at 0%. Moreover, in the assay on HCT-116 cell line (HCT-116 cells), the “HCT-116 5 Inhibition at 0.25 μM” value is 37.
Turning to `Nc1nc(NC2CCN(S(=O)(=O)CCCN3CCC3)CC2)sc1C(=O)c1c(F)cccc1F` [Example K19, 1-{4-Amino-2-[1-(3-azetidin-1-yl-propane-1-sulfonyl)-piperidin-4-ylamino]-thiazol-5-yl}-1-(2,6-difluoro-phenyl)-methanone.], the values for the Ki (on CDK2/Cyclin A; in assay [1]) were 1.3 nM and 2 nM, respectively. The IC50 in the assay with HCT-116 cell line (first HCT-116 column (c4)) is 810 nM; in the assay with HCT-116 cell line (second HCT-116 column (c5)) it was greater than 5000 nM.
`CN1CCCC1CCSc1ccc(S(=O)(=O)N2CCC(Nc3nc(N)c(C(=O)c4c(F)cccc4F)s3)CC2)cn1` (stereo not drawn) [Example L6, 1-[4-Amino-2-(1-{6-[2-(1-methyl-pyrrolidin-2-yl)-ethylsulfanyl]-pyridine-3-sulfonyl}-piperidin-4-ylamino)-thiazol-5-yl]-1-(2,6-difluoro-phenyl)-methanone Dihydrochloride.]: the Ki was determined as 1.5 nM on CDK2/Cyclin A and 0.95 nM in assay [1]. The values for the IC50 in the assay with HCT-116 cell line (first HCT-116 column (c4)) and in the assay on HCT-116 cell line (second HCT-116 column (c5)) were 75 nM and 300 nM, respectively.
`Nc1nc(NC2CCN(C(=O)c3sc4ccccc4c3Cl)CC2)sc1C(=O)c1c(F)cccc1F` [Example R31]: the “CDK2 % Inhibition at 0.03 μM” value at CDK2/Cyclin A (at 0.03 μM) is on record as 57%. Moreover, the “CDK4 % Inhibition at 0.03 μM” value in assay [1] (at 0.03 μM) is listed as 60%. For the same compound, the “HCT-116 % Inhibition at 0.1 μM” value with HCT-116 cell line (HCT-116 cells, at 0.1 μM) is given as 0%. In the assay on HCT-116 cell line (HCT-116 cells), the “HCT-116 5 Inhibition at 0.25 μM” value is recorded as 42.
In the case of `COc1ccc(S(=O)(=O)N2CCC(Nc3nc(N)c(C(=O)c4c(F)cccc4F)s3)CC2)cc1OC` [Example P38], on CDK2/Cyclin A (0.03 μM compound, Table 3), the “CDK2 % Inhibition at 0.03 μM” value came out at 73%. In assay [1] (0.03 μM compound, Table 3), the “CDK4 % Inhibition at 0.03 μM” value was 74%. Further, in the assay on HCT-116 cell line (setting [3]), the “HCT-116 % Inhibition at 0.1 μM” value turned out to be 15%. Moreover, the “HCT-116 % Inhibition at 0.25 μM” value in the assay with HCT-116 cell line (HCT-116, Table 3) is 35%.
Take `Nc1nc(NC2CCN(S(N)(=O)=O)CC2)sc1C(=O)c1c(F)cccc1F` [Example E4, 4-[4-Amino-5-(2,6-difluoro-benzoyl)-thiazol-2-ylamino]-piperidine-1-sulfonic acid amide]: the results for the Ki (at CDK2/Cyclin A; in assay [1]) were 2.7 nM and 14 nM, respectively. In addition, the IC50 turned out to be 570 nM in the assay on HCT-116 cell line (first HCT-116 column (c4)) and 1200 nM in the assay with HCT-116 cell line (second HCT-116 column (c5)).
`Cc1ccc(C(=O)N2CCC(Nc3nc(N)c(C(=O)c4c(F)cccc4F)s3)CC2)cc1` [Example R154]: the “CDK2 % Inhibition at 0.03 μM” value on CDK2/Cyclin A (at 0.03 μM) turned out to be 50%. Further, in assay [1] (at 0.03 μM), the “CDK4 % Inhibition at 0.03 μM” value worked out at 63%. Moreover, the “HCT-116 % Inhibition at 0.1 μM” value with HCT-116 cell line (HCT-116 cells, at 0.1 μM) is reported as 0%. For the same compound, the “HCT-116 5 Inhibition at 0.25 μM” value in the assay on HCT-116 cell line (HCT-116 cells) was 27.
In the case of `CC(C)S(=O)(=O)c1csc(C(=O)N2CCC(Nc3nc(N)c(C(=O)c4c(F)cccc4F)s3)CC2)c1Cl` [Example C5, (4-Amino-2-{1-[3-chloro-4-(propane-2-sulfonyl)-thiophene-2-carbonyl]-piperidin-4-ylamino}-thiazol-5-yl)-(2,6-difluoro-phenyl)-methanone], the Ki is 81 nM on CDK2/Cyclin A and 8 nM in assay [1]. For the same compound, the IC50 was 1900 nM with HCT-116 cell line (first HCT-116 column (c4)) and 4000 nM in the assay with HCT-116 cell line (second HCT-116 column (c5)).
In the case of `CSc1nccc(-c2ccc(S(=O)(=O)N3CCC(Nc4nc(N)c(C(=O)c5c(F)cccc5F)s4)CC3)s2)n1` [Example P72], the “CDK2 % Inhibition at 0.03 μM” value on CDK2/Cyclin A (0.03 μM compound, Table 3) came to 61%. Moreover, the “CDK4 % Inhibition at 0.03 μM” value in assay [1] (0.03 μM compound, Table 3) is recorded as 61%. In the assay on HCT-116 cell line (setting [3]), the “HCT-116 % Inhibition at 0.1 μM” value is 13%. The “HCT-116 % Inhibition at 0.25 μM” value with HCT-116 cell line (HCT-116, Table 3) is given as 35%.
For `Nc1nc(NC2CCN(S(=O)(=O)c3ccc(CCNc4cccc(O)c4)nc3)CC2)sc1C(=O)c1c(F)cccc1F` [Example N6, [4-Amino-2-(1-{6-[2-(3-hydroxy-phenylamino)-ethyl]-pyridine-3-sulfonyl}-piperidin-4-ylamino)-thiazol-5-yl]-(2,6-difluoro-phenyl)-methanone Hydrochloride Salt.], the Ki on CDK2/Cyclin A was found to be 0.3 nM; in assay [1] it was 0.31 nM. Moreover, the IC50 with HCT-116 cell line (first HCT-116 column (c4)) is 410 nM; in the assay on HCT-116 cell line (second HCT-116 column (c5)), 1300 nM.
`Nc1nc(NC2CCN(C(=O)c3ccc(Cl)cc3)CC2)sc1C(=O)c1c(F)cccc1F` [Example R144]: at CDK2/Cyclin A (at 0.03 μM), the “CDK2 % Inhibition at 0.03 μM” value turned out to be 20%. For the same compound, the “CDK4 % Inhibition at 0.03 μM” value in assay [1] (at 0.03 μM) is 46%. The “HCT-116 % Inhibition at 0.1 μM” value with HCT-116 cell line (HCT-116 cells, at 0.1 μM) is reported as 0%. Moreover, in the assay with HCT-116 cell line (HCT-116 cells), the “HCT-116 5 Inhibition at 0.25 μM” value came out at 38.
As for `Cn1cnc(S(=O)(=O)N2CCC(Nc3nc(N)c(C(=O)c4c(F)cccc4F)s3)CC2)c1` [Example F2, 1-{4-Amino-2-[1-(i-methyl-1H-imidazole-4-sulfonyl)-piperidin-4-ylamino]-thiazol-5-yl}-1-(2,6-difluoro-phenyl)-methanone], the Ki on CDK2/Cyclin A was less than 5 nM; in assay [1], 1.9 nM. Moreover, the IC50 turned out to be 1300 nM in the assay on HCT-116 cell line (first HCT-116 column (c4)) and 4000 nM with HCT-116 cell line (second HCT-116 column (c5)).
For `CN(C)c1ccc(NC(=O)N2CCC(Nc3nc(N)c(C(=O)c4c(F)cccc4F)s3)CC2)cc1` [Example B2, 4-[4-Amino-5-(2,6-difluoro-benzoyl)-thiazol-2-ylamino]-piperidine-1-carboxylic Acid (4-Dimethylamino-phenyl)-amide], the results for the Ki (on CDK2/Cyclin A; in assay [1]) were 28 nM and 110 nM, respectively. Further, the values for the IC50 with HCT-116 cell line (first HCT-116 column (c4)) and in the assay with HCT-116 cell line (second HCT-116 column (c5)) were 350 nM and 950 nM, respectively.
In the case of `COc1cc(OC)cc(C(=O)N2CCC(Nc3nc(N)c(C(=O)c4c(F)cccc4F)s3)CC2)c1` [Example Q23], the “CDK2 % Inhibition at 0.03 μM” value on CDK2/Cyclin A (0.03 μM compound, Table 4) was 20%. Also, the “CDK4 % Inhibition at 0.03 μM” value in assay [1] (0.03 μM compound, Table 4) is recorded as 56%. The “HCT-116 % Inhibition at 0.1 μM” value in the assay with HCT-116 cell line (0.1 μM compound, HCT-116, Table 4) stood at 10%. Moreover, the “HCT-116 % Inhibition at 0.25 μM” value in the assay on HCT-116 cell line (HCT-116, Table 4) was 42%.
`COc1cccc(C(=O)N2CCC(Nc3nc(N)c(C(=O)c4c(F)cccc4F)s3)CC2)c1` [Example R136]: the “CDK2 % Inhibition at 0.03 μM” value at CDK2/Cyclin A (at 0.03 μM) was 26%. For the same compound, the “CDK4 % Inhibition at 0.03 μM” value in assay [1] (at 0.03 μM) was determined as 45%. Further, in the assay on HCT-116 cell line (HCT-116 cells, at 0.1 μM), the “HCT-116 % Inhibition at 0.1 μM” value is given as 0%. In the assay on HCT-116 cell line (HCT-116 cells), the “HCT-116 5 Inhibition at 0.25 μM” value worked out at 37.
Take `COC(=O)c1ccccc1NC(=O)N1CCC(Nc2nc(N)c(C(=O)c3c(F)cccc3F)s2)CC1` [Example O39]: on CDK2/Cyclin A (0.03 μM compound, Table 2), the “CDK2 % Inhibition At 0.03 μM” value amounted to 32%. For the same compound, the “CDK4 % Inhibition at 0.03 μM” value in assay [1] (0.03 μM compound, Table 2) came out at 13%. The “HCT-116 % Inhibition at 0.25 μM” value in the assay with HCT-116 cell line (HCT-116, Table 2) is given as 27%.
